What is called melting point is the temperature of the solid-liquid transition.

As for `COc1ccc2c(c1)C(C(=O)N(Cc1ccc(CO)cc1)c1ccc(C(C)C)cc1)CCC2` (configuration not stated), the melting point amounted to 143 °C.
The figure for `CC(=O)OC1CSC(Oc2cccc3oc(C)nc23)C(OC(C)=O)C1OC(C)=O` (configuration not stated) is 149 to 151 °C; for `Cc1nc(CNc2c(C)cccc2C)n[nH]1` it is 125 to 126 °C.
The figure for `CCOC(=O)COc1nc2cc(OC)cc(OC)c2cc1-c1ccc(OC)cc1` is 95 to 96 °C.
In the case of `COC(=O)N[C@H](C(=O)O)C(C)(C)C` it was 106 to 108 °C; in that of `O=C(O)CC1=C(Cc2ccc3c(Cl)cccc3c2)C(=O)CCC1`, 98 to 100 °C.
`CCCN(c1ncccc1N)C1CCN(Cc2ccccc2)CC1` gave a melting point of 73 to 74 °C.
In turn, `CC(C)C(=O)NC(c1ccc(Br)cc1)C(F)(F)F` (configuration not stated) gave a melting point of 176 to 178 °C.
In the case of `CCC12CCC(=O)C=C1c1c(cc(OCC(=O)OCC(O)CO)c(Cl)c1Cl)C2` (configuration not stated) it was 135 to 138 °C; in that of `Nc1ccc(S(=O)(=O)Nc2nnc(CO)s2)cc1`, 89 to 90 °C.
The figure for `N#Cc1ccc(C(=C2C3CC4CC(C3)CC2C4)c2nc[nH]n2)cc1` is 105 °C.
In the case of `CC(=O)Sc1c(C)nn2c3ccccc3n(C(C)=O)c12` it was 191 to 193 °C; in that of `CCS(=O)(=O)N(C(C)=O)c1cc(-c2ncnc(C(F)F)c2Cl)c(F)cc1C#N`, 123 to 124 °C.
On to `CCNS(=O)(=O)/C=C/c1ccc2[nH]cc(C3CCN(Cc4ccccc4)CC3)c2c1`, for which the melting point is 178 to 180 °C.
In the case of `COC(=O)[C@H](CO)NC(=O)c1ncn2c1CN(C)C(=O)c1sccc1-2` it was 158 to 160 °C.
In the case of `CC(C)(C)c1cc2c(c(C(C)(C)C)c1)OP(Cl)Oc1c(cc(C(C)(C)C)cc1C(C)(C)C)C2` it was 227 to 230 °C; in that of `CSc1cccc(COCCCO)c1NC(=O)CC1c2ccccc2Oc2ccccc21`, 207 to 208 °C.
The figure for `CCCc1c2nc(C(=O)OC)cc(N(C)S(=O)(=O)c3ccc(C)cc3)c2cc2c(=O)cc(C(=O)OCC)oc12` is 173 to 174 °C; for `C=C(C)c1cc(O)cc2nc(-c3ccc(O)cc3)oc12` it is 225 to 228 °C.
As to `COc1nccnc1C1(O)CN2CCC1CC2` (configuration not stated), the melting point was 130 to 131 °C.
In the case of `Nc1ccccc1CCc1ccccn1` it was 59 to 61 °C.
In the case of `C=C(C)CSc1ccccc1S(=O)(=O)NC(C)(C)C` it was 104 to 107 °C.
In the case of `C/C(=C\CNC(=O)c1ccccc1)c1ccccc1` it was 139 °C.
In turn, `O=C(CCc1nc(-c2ccc(Cl)cc2)co1)OCc1ccccc1` yielded a melting point of 66 to 67 °C.
The compound `CCOC(OCC)N1C(=O)OC(C)(C)c2cc(-c3cc(F)cc(C#N)c3)ccc21` came in with a melting point of 123 to 124 °C.
In the case of `COC(=O)c1ccc(=O)n(CCNC(=O)c2cc(Cl)ccc2OC)c1` it was 149 to 150 °C; in that of `Cc1oc(-c2ccccc2)nc1COc1ccc(CN(O)C(N)=O)cc1Cl`, 180 to 182 °C.
In the case of `CCOCC(O)(COCC)C(Cc1cc(OC)cc(OC)c1)NC(=O)OC(C)(C)C` (configuration not stated) it was 73.5 to 75 °C.
`CCc1cc([N+](=O)[O-])c(NC(CC)CC)c([N+](=O)[O-])c1COC` gave a melting point of 28 to 29 °C.
`O=P(O)(O)CNC1CCCCC1`: the melting point fell in the range of 279 to 284 °C.
`CCCCCCCCOc1ccc2c(c1CCC)OC(CCC(=O)O)(CCC(=O)O)CC2=O` had a melting point of 148 °C.
In the case of `Cc1ccc2[nH]c3c(cc(-c4ccc(O)cc4)c(=O)n3C)c2c1` it was 186 °C; in that of `COc1cc(NCCCN(C)Cc2ccccc2)ccc1C(N)=O`, 116 to 118 °C; in that of `Nc1nc2c(s1)CCN(CC=Cc1ccc(F)cc1)CC2`, 142 to 146 °C.
In the case of `COc1ccc(N2CCN(c3ccc(-n4c(C)c[nH]c4=O)cc3)CC2)cc1` it was greater than 300 °C; in that of `Cc1ccc(Cn2c(NC3CCN(CC(O)COc4ccccc4)CC3)nc3ccccc32)o1` (configuration not stated), 165 °C; in that of `CS(=O)(=O)c1ccc(-c2nc(C(F)(F)F)nc(N=[N+]=[N-])c2-c2ccccc2)cc1`, 172 to 175 °C.
In the case of `O=C1c2cc([N+](=O)[O-])cc([N+](=O)[O-])c2OC12CC2` it was 158 to 161 °C; in that of `COC(=O)c1ccc(C(=O)NCCCCNC(=O)c2ccc(C(=O)OC)cc2)cc1`, 260 to 261 °C; in that of `Cc1cc(SC(C)c2ccc3nc(-c4ccc(C(F)(F)F)cc4)sc3c2)ccc1OCC(=O)O` (configuration not stated), 170 to 173 °C.
`CC(C)(C)CC(C)(C)NC(=O)Nc1ccccc1CCc1cc(C(C)(C)C)c(O)c(C(C)(C)C)c1`: the melting point lay within 168 to 169 °C.
The figure for `C[C@@H]1N(C)C(C)(C)CO[C@@]1(O)c1cccc(Cl)c1` is 128 to 129 °C; for `NC(=O)CC(CC(N)=O)c1cccc(F)c1` it is 194 to 196 °C.
The figure for `CC(C(=O)O)c1cc(CC(=O)O)c(-c2ccccc2)s1` (configuration not stated) is 145 to 146 °C; for `O=C(NCCC1CC1)c1ccnc(N2CCN(Cc3ccc(F)cc3)C2=O)c1` it is 123 to 125 °C; for `O=C(O)CCCOc1ccc(C23CC4CC(CC(C4)C2)C3)cc1` it is 170 to 172 °C.
`O=C1N(Cc2ccc3nonc3c2)c2ccccc2C12COc1cc3c(cc12)OCCO3` (configuration not stated) returned a melting point of 164 to 166 °C.
In the case of `OC1CSC(Oc2cncc(-c3c(F)cc(F)cc3F)c2)C(O)C1O` (configuration not stated) it was 228 °C; in that of `C=CCC(C)(C)C(NC(=O)c1ccc(Cl)cc1)NC(=NC#N)Nc1cccnc1` (configuration not stated), 97 to 98 °C.
In the case of `O=C(Nc1ccccc1F)c1ccc(CN2C(=O)C3(COc4cc5c(cc43)OCCO5)c3ccccc32)cc1` (configuration not stated) it was 245 to 251 °C.
In the case of `CC(=NO)c1ccc2c(c1)oc1ccccc12` it was 132 to 135 °C.
With `CCOCc1nc2c(N)nc3cc(-c4cccc(CO)c4)cnc3c2n1CC(C)(C)NS(C)(=O)=O`, the melting point was in the range of 173 to 174 °C.
In the case of `O=C(O)c1ccc2nc3n(c(=O)c2c1)CCCC3=Cc1ccccc1` it was 288 to 290 °C; in that of `N#Cc1ccc(OC[C@H](O)CO)cc1`, 63 to 65 °C; in that of `COc1ccc(C(=NOCc2ccccc2)c2cccc([N+](=O)[O-])c2)cc1`, 100 to 101 °C.
In the case of `CCn1ncc2nc(C(=O)NC)c(-c3ccccc3)nc21` it was 165 to 166 °C.
The figure for `O=C1c2cccc(Sc3ccccc3)c2C(=O)c2cccc(Nc3ccc([N+](=O)[O-])cc3)c21` is 242 to 244 °C; for `O=C1NC(=O)C(CCCCCc2ccc(O)cc2)O1` (configuration not stated) it is 96 to 97 °C; for `O=C(NN=C(c1ccc(Cl)cc1)c1ccc(OC(F)(F)C(Cl)Cl)cc1)c1ccccc1` it is 121 to 122 °C.
The compound `CN1CCC(OC2c3ccccc3CCn3cc(-c4ccc(N)cc4)nc32)CC1` (configuration not stated) yielded a melting point of 197 °C.
In the case of `CCOC(=O)c1c(-c2ccc(OC)cc2)c2oc3ccc(-c4ccccc4)cc3c2n(Cc2cc(OC)ccc2OC)c1=O` it was 216 °C; in that of `CCOc1cccc(CC(=O)O)c1OCCn1cc(C(=O)NCc2ccc(Cl)cc2Cl)c(OC(C)C)n1`, 90 to 91 °C.
The figure for `CCOC(=O)CNC(=O)[C@H](CC(C)C)NC(=O)[C@@H]1CCCN1C(=O)OCc1ccccc1` is 149 to 150 °C.
The figure for `OC(c1ccccc1)(C1CC1)C(c1ccccc1Cl)n1ccnc1` (configuration not stated) is 146 °C; for `CC[C@H]1c2cccn2-c2cc(F)c(F)cc2N1S(=O)(=O)c1ccc(O)c(C)c1` it is 161 to 163 °C.
Consider `O=C(O)c1ccc(-c2cc(-c3ccccc3)no2)cc1`, for which the melting point was greater than 300 °C.
The figure for `CCOC(=O)COc1ccc(NC(=O)OC(C)(C)C)cc1C(F)(F)F` is 104 to 105 °C.
The figure for `COc1ccc(C(=C(CCBr)c2ccccc2)c2ccccc2)cc1` is 116 to 118 °C; for `S=C1CN=C(c2ccccc2Cl)c2cc(CCc3ccccc3)sc2N1` it is 175 to 176 °C.
In the case of `Cn1c(=O)ccc2cnc(S(C)(=O)=O)nc21` it was 194 to 196 °C.
`Cc1cc(C)c(C(=O)O)c(C)c1C` showed a melting point of 164 to 167 °C.
In the case of `Nc1nc(Cl)c(N)c(NCCO)n1` it was 164 to 167 °C; in that of `CCCc1nc2c(N)nc3cccnc3c2n1CC1(O)CCCCC1`, 209 to 211 °C.
The figure for `C#Cc1cc(Nc2ncnc3cnc(NCc4ccc(OC)cc4)cc23)ccc1Cl` is 201 to 203 °C; for `CCCCc1sc(-c2ccccc2)nc1O` it is 69 to 71 °C.
In the case of `Clc1nc(Cl)nc(Oc2ccccc2)n1` it was 113 to 114 °C; in that of `COc1ccc2c(c1OC)C1=NCCN1C1C(c3ccccc3)CCN21` (configuration not stated), 171 °C.
`CC1(N)CN(c2c(F)cc3c(=O)c(C(=O)O)cn(-c4nc(N)c(F)cc4F)c3c2Cl)C1` displayed a melting point of 280 °C.
In the case of `CC(C)NC1=NS(=O)(=O)c2sc(Cl)cc2N1` it was 281 to 283 °C; in that of `CCOc1ccc(-c2nc(-c3ccc(OC4OC(COC(C)=O)C(OC(C)=O)C(OC(C)=O)C4OC(C)=O)cc3)cs2)cc1OCC` (configuration not stated), 180 to 181 °C; in that of `CNC(=O)N=c1ccc(C)cn1-c1cccc(C(F)(F)F)c1`, 114 °C.
In the case of `CN1CCN(c2ccc(Nc3ncc4c(n3)S/C(=C/c3ccc(F)cc3)C(=O)N4)cc2)CC1` it was 172 to 175 °C; in that of `COc1cc(NC(C)=O)cc(OC)c1-c1ccc(C[C@H](NC(=O)c2c(Cl)cccc2Cl)C(=O)O)cc1`, 243 to 244 °C; in that of `COC(=O)C1Cc2c(nc(C)n2-c2ccc(N(C)C)c(C)c2)CN1C(=O)C(c1ccccc1)c1ccccc1` (configuration not stated), 165 °C.
The figure for `Cn1cncc1C(O)(c1ccc(C=O)cc1)c1ccc2c(c1)c(-c1cccc(Cl)c1)nc1nnnn12` (configuration not stated) is 170 °C; for `CC(C)(NCCc1ccccc1)C(O)c1ccccc1` (configuration not stated) it is 103 to 104 °C; for `Cc1ccc(C)c(Cn2[nH]c(N)cc2=O)c1` it is 124 °C.

Values taken from a melting point compilation (Tetko et al.; mined from patent text by program, amines drawn as free bases though some values may be those of a salt).
